Key:
[1] = human absorption data, from Ertl et al., J. Med. Chem., 2000; cited from earlier work
[2] = biological target: T1, human NHE3 (Homo sapiens, UniProt P48764); experiment: Cell-based assay of NHE-3 activity (persistent inhibition after washout), human; settings: human Persistence assay; after 60 min incubation and washout
T1 construct: host or cells: PS120 fibroblasts
T1 sequence (P48764 26-834): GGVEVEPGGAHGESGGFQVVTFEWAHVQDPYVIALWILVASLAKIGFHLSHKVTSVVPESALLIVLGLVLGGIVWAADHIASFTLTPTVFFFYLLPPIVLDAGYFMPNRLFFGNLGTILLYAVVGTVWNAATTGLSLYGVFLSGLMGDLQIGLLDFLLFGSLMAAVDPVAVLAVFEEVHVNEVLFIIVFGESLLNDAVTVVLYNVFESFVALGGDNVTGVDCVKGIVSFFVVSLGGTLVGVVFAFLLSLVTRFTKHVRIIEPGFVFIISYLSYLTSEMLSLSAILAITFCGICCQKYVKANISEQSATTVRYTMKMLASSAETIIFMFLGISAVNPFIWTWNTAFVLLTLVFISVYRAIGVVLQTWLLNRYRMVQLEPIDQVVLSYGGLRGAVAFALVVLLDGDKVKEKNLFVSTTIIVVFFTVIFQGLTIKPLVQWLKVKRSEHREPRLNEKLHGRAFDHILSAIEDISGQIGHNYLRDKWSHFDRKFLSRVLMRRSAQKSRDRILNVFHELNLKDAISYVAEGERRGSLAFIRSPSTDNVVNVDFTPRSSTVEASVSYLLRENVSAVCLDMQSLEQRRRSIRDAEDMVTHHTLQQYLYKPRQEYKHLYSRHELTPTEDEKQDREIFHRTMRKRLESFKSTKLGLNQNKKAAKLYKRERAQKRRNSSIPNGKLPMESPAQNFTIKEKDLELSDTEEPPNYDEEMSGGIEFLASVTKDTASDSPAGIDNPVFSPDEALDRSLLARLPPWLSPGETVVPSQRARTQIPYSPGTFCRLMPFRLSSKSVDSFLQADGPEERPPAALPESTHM
T1 sequence (Q99653 2-195 partner limits assumed): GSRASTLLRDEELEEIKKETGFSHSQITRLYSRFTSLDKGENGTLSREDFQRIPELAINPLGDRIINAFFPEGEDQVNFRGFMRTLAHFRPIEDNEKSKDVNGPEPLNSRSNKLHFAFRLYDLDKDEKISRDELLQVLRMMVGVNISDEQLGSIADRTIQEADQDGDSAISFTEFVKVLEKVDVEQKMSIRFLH
Protocol: The ability of compounds to inhibit human and rat NHE-3-mediated Na^+-dependent H^+ antiport after application and washout was measured using a modification of the pH sensitive dye method described above. PS120 fibroblasts stably expressing human NHE3 and NHERF2 were obtained from Mark Donowitz (Baltimore, Md.). Opossum kidney (OK) cells were obtained from the ATCC and propagated per their instructions. The rat NHE-3 gene was introduced into OK cells via electroporation, and cells were seeded into 96 well plates and grown overnight. Medium was aspirated from the wells, cells were washed once with NaCl-HEPES buffer (100 mM NaCl, 50 mM HEPES, 10 mM glucose, 5 mM KCl, 2 mM CaCl2, 1 mM MgCl2, pH 7.4), then overlayed with NaCl-HEPES buffer containing 0-30 μM test compound. After a 60 min incubation at room temperature, the test drug containing buffer was aspirated from the cells. Following aspiration, cells were washed once with NaCl-HEPES buffer without drug, then incubated for 30 min at 37° C. with NH4Cl-HEPES buffer (20 mM NH4Cl, 80 mM NaCl, 50 mM HEPES. 5 mM KCl, 2 mM CaCl2), 1 mM MgCl2, pH 7.4) containing 5 μM BCECF-AM. Cells were washed once with Ammonium free, Na^+-free HEPES (100 mM choline, 50 mM HEPES, 10 mM glucose. 5 mM KCl, 2 mM CaCl2), 1 mM MgCl2, pH 7.4) and incubated in the same buffer for 10 minutes at room temperature to lower intracellular pH. NHE-3-mediated recovery of neutral intracellular pH was initiated (10 min after compound washout) by addition of Na-HEPES buffer. […] Changes in intracellular pH were monitored using a FLIPR Tetra® (Molecular Devices, Sunnyvale, Calif.) by excitation at λex 439 to 505 nm, and measuring BCECF fluorescence at λem 538 nm. The initial rate of the fluorescence ratio change was used as a measure of NHE-mediated Na^+/H^+ activity, and reported as the change in fluorescence ratio per minute.

[3] = biological target: T1, human NHE3; experiment: Cell-based assay of NHE-3 activity (pre-incubation inhibition), human; settings: human Preincuba assay; PS120 fibroblasts expressing human NHE3 and NHERF2
Protocol: Rat and human NHE-3-mediated Na^+-dependent H^+ antiport was measured using a modification of the pH sensitive dye method originally reported by Paradiso (Proc. Natl. Acad. Sci. USA. (1984) 81(23): 7436-7440). PS120 fibroblasts stably expressing human NHE3 and NHERF2 were obtained from Mark Donowitz (Baltimore, Md.). Opossum kidney (OK) cells were obtained from the ATCC and propagated per their instructions. The rat NHE-3 gene (GenBank M85300) was introduced into OK cells via electroporation, and cells were seeded into 96 well plates and grown overnight. Medium was aspirated from the wells then incubated for 30 min at 37° C. with NH4Cl-HEPES buffer (20 mM […], 80 mM NaCl, 50 mM HEPES, 5 mM KCl, 2 mM CaCl2, 1 mM MgCl2, pH 7.4) containing 5 μM BCECF-AM. Cells were washed once with Ammonium free, Na^t-free HEPES (100 mM choline, 50 mM HEPES, 10 mM glucose, 5 mM KCl, 2 mM CaCl2), 1 mM MgCl2, pH 7.4) and incubated in the same buffer for 10 minutes at room temperature to lower intracellular pH with 0-30 μM test compound. […] Changes in intracellular pH were monitored using a FLIPR Tetra®® (Molecular Devices, Sunnyvale, Calif.) by excitation at λex 439 to 505 nm, and measuring BCECF fluorescence at λem 538 nm. The initial rate of the fluorescence ratio change was used as a measure of NHE-mediated Na^+/H^+ activity, and reported as the change in fluorescence ratio per minute.

In the case of O=C(O)c1cc(/N=N/c2ccc(S(=O)(=O)Nc3ccccn3)cc2)ccc1O [sulfasalazine], the “$ FA” value [1] is given as 12.

For CC(C)NCC(O)COc1cccc2[nH]ccc12 (stereo not shown) [pindolol], the “$ FA” value [1] is listed as 92.

In the case of C=CCc1ccccc1OCC(O)CNC(C)C (stereo not shown) [alprenolol], the “$ FA” value [1] is given as 96.

With CN1Cc2c(Cl)cc(Cl)cc2[C@H](c2cccc(S(=O)(=O)N3CCC(OCCOCCNC(=O)NCCCCNC(=O)NCCOCCOC4CCN(S(=O)(=O)c5cccc([C@@H]6CN(C)Cc7c(Cl)cc(Cl)cc76)c5)CC4)CC3)c2)C1 [Example 48] the “% inhibition” value [2] was “C (>70%)”, the IC50 [2] was 100 to 1000 nM and the “% inhibition” value [3] was “C (>70%)”. For the same molecule, the IC50 [3] was less than 100 nM.

For OC[C@H]1O[C@@H](O[C@@H]2[C@@H](CO)OC(O)(CO)[C@H]2O)[C@H](O)[C@@H](O)[C@H]1O (mixture of isomers) [lactulose], the “$ FA” value [1] is given as 0.6.

For CN1Cc2c(Cl)cc(Cl)cc2C(c2cccc(S(=O)(=O)N[C@@H]3CCN(CCOCCNC(=O)NCCCCNC(=O)NCCOCCN4CC[C@@H](NS(=O)(=O)c5cccc(C6CN(C)Cc7c(Cl)cc(Cl)cc76)c5)C4)C3)c2)C1 (stereo partly drawn) [Example 24, N,N′-[(3R,3′R)-(7,14-Dioxo-3,18-dioxa-6,8,13,15-tetraazaicosane-1,20-diyl)bis(pyrrolidine-1,3-diyl)]bis[3-(6,8-dichloro-2-methyl-1,2,3,4-tetrahydroisoquinolin-4-yl)benzenesulfonamide]], the “% inhibition” value [2] was “C (>70%)”, the IC50 [2] was less than 100 nM and the “% inhibition” value [3] was “C (>70%)”. The IC50 [3] was less than 100 nM.

In the case of CN1Cc2c(Cl)cc(Cl)cc2[C@H](c2cccc(S(=O)(=O)N3CC[C@@H](OCCOCCNC(=O)NCCCCNC(=O)NCCOCCO[C@@H]4CCN(S(=O)(=O)c5cccc([C@@H]6CN(C)Cc7c(Cl)cc(Cl)cc76)c5)C4)C3)c2)C1 [Example 49, 1-(2-(2-(((R)-1-((3-((S)-6,8-dichloro-2-methyl-1,2,3,4-tetrahydroisoquinolin-4-yl)phenyl)sulfonyl)pyrrolidin-3-yl)oxy)ethoxy)ethyl)-3-(4-(3-(2-(2-(((R)-1-((3-((S)-6,8-dichloro-2-methyl-1,2,3,4-tetrahydroisoquinolin-4-yl)phenyl)sulfonyl)pyrrolidin-3-yl)oxy)ethoxy)ethyl)ureido)buty)urea], the “% inhibition” value [2] is reported as “C (>70%)”, the IC50 [2] is reported as 100 to 1000 nM and the “% inhibition” value [3] is reported as “C (>70%)”. The IC50 [3] was less than 100 nM.

For CC(=O)Nc1ccc(OCC(O)CNC(C)C)cc1 (stereo not shown) [practolol], the “$ FA” value [1] is given as 95.

For CC(C)[C@H](COCCOCCNC(=O)NCCCCNC(=O)NCCOCCOC[C@H](NS(=O)(=O)c1cccc([C@@H]2CN(C)Cc3c(Cl)cc(Cl)cc32)c1)C(C)C)NS(=O)(=O)c1cccc([C@@H]2CN(C)Cc3c(Cl)cc(Cl)cc32)c1 [Example 51], the “% inhibition” value [2] was “A (NHE3 <40%)”, the IC50 [2] was greater than 1000 nM and the “% inhibition” value [3] was “A (NHE3 <40%)”. It also gave an IC50 [3] greater than 1000 nM.

For OC[C@H]1O[C@H](OC[C@H]2O[C@H](O[C@]3(CO)O[C@H](CO)[C@@H](O)[C@@H]3O)[C@H](O)[C@@H](O)[C@@H]2O)[C@H](O)[C@@H](O)[C@H]1O [raffinose], the “$ FA” value [1] is listed as 0.3.

For CCN1CCCC1CNC(=O)c1cc(S(N)(=O)=O)ccc1OC (stereo not shown) [sulpiride], the “$ FA” value [1] is given as 36.

For O=C(O)c1cc(/N=N/c2ccc(O)c(C(=O)O)c2)ccc1O [olsalazine], the “$ FA” value [1] is listed as 2.3.

In the case of Cc1ccccc1N1C(=O)c2cc(S(N)(=O)=O)c(Cl)cc2NC1C (stereo not shown) [metolazone], the “$ FA” value [1] is listed as 64.

For OC[C@@H](O)[C@@H](O)[C@H](O)[C@H](O)CO [mannitol], the “$ FA” value [1] is given as 26.

In the case of NC[C@H]1CC[C@H](C(=O)O)CC1 [tranexamic acid], the “$ FA” value [1] is given as 55.

For CN1Cc2c(Cl)cc(Cl)cc2[C@H](c2cccc(S(=O)(=O)NC(C)(C)COCCOCCNC(=O)NCCCCNC(=O)NCCOCCOCC(C)(C)NS(=O)(=O)c3cccc([C@@H]4CN(C)Cc5c(Cl)cc(Cl)cc54)c3)c2)C1 [Example 47, 3-(2-[2-[2-([3-[(4S)-6,8-dichloro-2-methyl-1,2,3,4-tetrahydroisoquinolin-4-yl]benzene]sulfonamido)-2-methylpropoxy]ethoxy]ethyl)-1-(4-[[(2-[2-[2-([3-[(4S)-6,8-dichloro-2-methyl-1,2,3,4-tetrahydroisoquinolin-4-yl]benzene]sulfonamido)-2-methylpropoxy]ethoxy]ethyl)carbamoyl]amino]butyl)urea], the “% inhibition” value [2] was “C (>70%)”, the IC50 [2] was 100 to 1000 nM and the “% inhibition” value [3] was “C (>70%)”. The IC50 [3] was less than 100 nM.

In the case of CN1Cc2c(Cl)cc(Cl)cc2[C@H](c2cccc(S(=O)(=O)N3CC[C@H](OCCOCCNC(=O)NCCCCNC(=O)NCCOCCO[C@H]4CCN(S(=O)(=O)c5cccc([C@@H]6CN(C)Cc7c(Cl)cc(Cl)cc76)c5)C4)C3)c2)C1 [Example 50], the “% inhibition” value [2] is reported as “C (>70%)”, the IC50 [2] is reported as 100 to 1000 nM and the “% inhibition” value [3] is reported as “C (>70%)”. For the same molecule, the IC50 [3] was less than 100 nM.

For C=CCOc1ccccc1OCC(O)CNC(C)C (stereo not shown) [oxyprenolol], the “$ FA” value [1] is listed as 97.

In the case of O=C(O)P(=O)(O)O [foscarnet], the “$ FA” value [1] is given as 17.

Reference: US11147884B2, “Inhibitors of NHE-mediated antiport” (Ardelyx, Inc., priority 2017, dated 2021)
